{
  "source": "patent US4048299A",
  "about": "“Anticaries confectionaries and oral health products” (William Wrigley, Jr. Co., priority 1970, dated 1977)",
  "key": {"Streptococcus sp. GS-5": {"tested_on": "Streptococcus sp. GS-5", "experiment": "Acid production inhibition, broth-tube technique", "format": "cell-based", "conditions": "Table XI, emulsion with 4 parts Tween 20", "description": "(a)2,4-Hexadienal was prepared as an emulsion with 4 parts of Tween 20."}, "oral microorganisms [1]": {"tested_on": "oral microorganisms", "experiment": "Growth inhibition in vitro (summary)", "format": "cell-based", "conditions": "in words, summary of tables", "description": "(§1) Other in vitro evaluations utilized a broth tube analysis of representative anticaries aldehydes incorporated in the vehicles of this invention against cultures of acid producing microorganisms normally present in the mouth. Standard laboratory procedures were utilized throughout to evaluate the acid production inhibition and growth inhibition over the incubation time of up to 24 hours."}, "oral microorganisms [2]": {"tested_on": "oral microorganisms", "experiment": "Acid production inhibition in vitro (summary)", "format": "cell-based", "conditions": "in words, summary of tables", "description": "as §1"}, "Streptococcus sp. FA-1": {"tested_on": "Streptococcus sp. FA-1", "experiment": "Acid production inhibition, broth-tube technique", "conditions": "Table XI, emulsion with 4 parts Tween 20", "from_the_text": "(§3) The data was compiled through well-known broth tube analysis techniques.\n(a)Measured by broth-tube technique."}, "Lactobacillus casei": {"tested_on": "Lactobacillus casei", "experiment": "Acid production inhibition, broth-tube technique", "conditions": "Table XI, emulsion with 4 parts Tween 20", "from_the_text": "as §3\n(a)Measured by broth-tube technique."}, "[3]": {"tested_on": "Lactobacillus casei and Streptococcus sp. FA-1", "experiment": "Acid-production inhibition by broth-tube assay, 0.1 percent of compound", "format": "cell-based", "conditions": "Table XII; 0.1% of compound", "description": "^(a) Activity was measured by broth-tube assay to determine percent\n(§2) acid-production inhibition obtained by Lactobacillus casei and\nStreptococcus sp. FA-1 in the presence of 0.1 percent of compound.\n^(a) Activity was measured by broth-tube assay to determine percent o\nas §2\nStreptococcus sp. FA-1 in the presence of 0.1% of compound. Symbols"}},
  "data": [
    {"compound": "CC=CC=CC=O", "note": "[2,4-Hexadienal]", "values": [
      {"measurement": "Inhibition of Acid Production", "setting": "Streptococcus sp. GS-5; 0.01 percent", "result": 8, "unit": "%"},
      {"measurement": "Inhibition of Acid Production", "setting": "Streptococcus sp. GS-5; 0.025 percent", "result": 35, "unit": "%"},
      {"measurement": "Inhibition of Acid Production", "setting": "Streptococcus sp. GS-5; 0.05 percent", "result": 97, "unit": "%"},
      {"measurement": "Inhibition of Acid Production", "setting": "Streptococcus sp. GS-5; 0.075 percent", "result": 99, "unit": "%"},
      {"measurement": "Inhibition of Acid Production", "setting": "Streptococcus sp. GS-5; 0.10 percent", "result": 100, "unit": "%"},
      {"measurement": "Growth Inhibition", "setting": "oral microorganisms [1]", "result": "little or no growth inhibition"},
      {"measurement": "Acid Production Inhibition", "setting": "oral microorganisms [2]", "result": "excellent acid production inhibition"},
      {"measurement": "Inhibition of Acid Production", "setting": "Streptococcus sp. FA-1; 0.01 percent", "result": 31, "unit": "%"},
      {"measurement": "Inhibition of Acid Production", "setting": "Streptococcus sp. FA-1; 0.025 percent", "result": 92, "unit": "%"},
      {"measurement": "Inhibition of Acid Production", "setting": "Streptococcus sp. FA-1; 0.05 percent", "result": 99, "unit": "%"},
      {"measurement": "Inhibition of Acid Production", "setting": "Streptococcus sp. FA-1; 0.075 percent", "result": 99, "unit": "%"},
      {"measurement": "Inhibition of Acid Production", "setting": "Streptococcus sp. FA-1; 0.10 percent", "result": 100, "unit": "%"},
      {"measurement": "Inhibition of Acid Production", "setting": "Lactobacillus casei; 0.01 percent", "result": 27, "unit": "%"},
      {"measurement": "Inhibition of Acid Production", "setting": "Lactobacillus casei; 0.025 percent", "result": 43, "unit": "%"},
      {"measurement": "Inhibition of Acid Production", "setting": "Lactobacillus casei; 0.05 percent", "result": 88, "unit": "%"},
      {"measurement": "Inhibition of Acid Production", "setting": "Lactobacillus casei; 0.075 percent", "result": 94, "unit": "%"},
      {"measurement": "Inhibition of Acid Production", "setting": "Lactobacillus casei; 0.10 percent", "result": 98, "unit": "%"},
      {"measurement": "Activity, Acid-Production Inhibition, %", "setting": "[3]", "result": "++++ (99 to 100)"}
    ]}
  ]
}
